Assays:
[1] = test system: TNFα production in LPS-stimulated human monocytes; assay: Cot Monocyte TNFα Cell Based Assay; settings: Homo sapiens, Monocyte, TNFα in LPS-stimulated human monocytes; read-out: EC50 TNF
Outline: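 5,000 cells/well; cmpd 1 h, 37 °C, 0.5% DMSO final; LPS 50 pg/ml, 4 h, 37 °C; media TNFα by HTRF sandwich (cryptate/XL665), RT overnight; % control vs unstimulated/stimulated wells.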

[2] = biological target: T1, human Cot catalytic domain (30-397 amino acids) (Homo sapiens, UniProt P41279); assay: High Throughput Cot Biochemical Assay (KinEASE TR-FRET); settings: Cot biochemical HTRF (KinEASE TR-FRET) assay; read-out: IC50 HTRF
T1 construct: Purified recombinant human Cot catalytic domain (30-397 amino acids) was purchased from Cama Biosciences; purchased Cama Biosciences (so in the source)
Outline: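 First, purified human Cot (aa 30-397) at 5 nM phosphorylates an XL665-labeled STK3 peptide (1 μM) at 400 μM ATP, pH 7.0, 0.1% DMSO. Then a europium-conjugated phospho-specific antibody binds the product, giving the TR-FRET signal.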

T1 sequence (P41279 30-397): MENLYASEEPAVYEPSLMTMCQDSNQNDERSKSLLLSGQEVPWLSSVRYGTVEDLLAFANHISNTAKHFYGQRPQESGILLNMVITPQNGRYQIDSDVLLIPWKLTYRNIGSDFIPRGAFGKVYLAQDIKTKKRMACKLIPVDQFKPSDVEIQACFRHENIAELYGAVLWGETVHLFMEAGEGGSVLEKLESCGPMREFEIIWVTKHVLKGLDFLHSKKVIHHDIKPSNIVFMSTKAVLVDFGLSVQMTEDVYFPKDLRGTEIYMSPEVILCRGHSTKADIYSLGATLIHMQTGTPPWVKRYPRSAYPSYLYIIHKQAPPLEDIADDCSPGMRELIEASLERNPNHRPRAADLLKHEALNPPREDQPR

SMILES | EC50 [1] [µM] | IC50 [2] [µM]
CC(Nc1c(C#N)cnc2c(Cl)cc(N[C@@H](c3ccc(Cl)cc3)c3cn(C4CCN(C(C)(C)C)CC4)nn3)cc12)c1ccccn1 (stereo partly drawn) [Example 697, 6-(((S)-(1-(1-(tert-butyl)piperidin-4-yl)-1H-1,2,3-triazol-4-yl)(4-chlorophenyl)methyl)amino)-8-chloro-4-((1-(pyridin-2-yl)ethyl)amino)quinoline-3-carbonitrile] | 17.1 | > 10
CC(C)(C)N1CCC(n2cc([C@@H](Nc3cc(Cl)c4ncc(C#N)c(NCC5CC5)c4c3)c3ccc(Cl)cc3)nn2)CC1 [Example 698, (S)-6-(((1-(1-(tert-butyl)piperidin-4-yl)-1H-1,2,3-triazol-4-yl)(4-chlorophenyl)methyl)amino)-8-chloro-4-((cyclopropylmethyl)amino) quinoline-3-carbonitrile] | 16.1 | 0.317
CC(Nc1c(C#N)cnc2c(Cl)cc(N[C@@H](c3ccc(Cl)cc3)c3cn(C4CCN(C(C)(C)C)CC4)nn3)cc12)c1cccnc1 (stereo partly drawn) [Example 699, 6-(((S)-(1-(1-(tert-butyl)piperidin-4-yl)-1H-1,2,3-triazol-4-yl)(4-chlorophenyl)methyl)amino)-8-chloro-4-((1-(pyridin-3-yl)ethyl)amino)quinoline-3-carbonitrile] | 10.6 | 0.379
N#Cc1cnc2c(Cl)cc(N[C@@H](c3ccc(Cl)cc3)c3cn(C4CCN(C5COC5)CC4)nn3)cc2c1Nc1ccc(O)c(Cl)c1 [Example 700, (S)-8-chloro-4-((3-chloro-4-hydroxyphenyl)amino)-6-(((4-chlorophenyl)(1-(1-(oxetan-3-yl)piperidin-4-yl)-1H-1,2,3-triazol-4-yl)methyl)amino) quinoline-3-carbonitrile] | 2.24 | 0.444
CC(C)(C)N1CCC(n2cc([C@@H](Nc3cc(Cl)c4ncc(C#N)c(Nc5ccc(O)c(Cl)c5)c4c3)c3ccc(Cl)cc3)nn2)CC1 [Example 701, (S)-6-(((1-(1-(tert-butyl)piperidin-4-yl)-1H-1,2,3-triazol-4-yl)(4-chlorophenyl)methyl)amino)-8-chloro-4-((3-chloro-4-hydroxyphenyl)amino) quinoline-3-carbonitrile] | 0.795 | 0.048
CC(C)(C)N1CCC(n2cc([C@@H](Nc3cc(Cl)c4ncc(C#N)c(NC5CCC5)c4c3)c3ccc(Cl)cc3)nn2)CC1 [Example 702, (S)-6-(((1-(1-(tert-butyl)piperidin-4-yl)-1H-1,2,3-triazol-4-yl)(4-chlorophenyl)methyl)amino)-8-chloro-4-(cyclobutylamino)quinoline-3-carbonitrile] | 17.6 | 0.314
CC(C)(C)N1CCC(n2cc([C@@H](Nc3cc(Cl)c4ncc(C#N)c(NCCc5ccccc5)c4c3)c3ccc(Cl)cc3)nn2)CC1 [Example 703, (S)-6-(((1-(1-(tert-butyl)piperidin-4-yl)-1H-1,2,3-triazol-4-yl)(4-chlorophenyl)methyl)amino)-8-chloro-4-(phenethylamino)quinoline-3-carbonitrile] | 12 | 0.095
C[C@@H](Nc1c(C#N)cnc2c(Cl)cc(N[C@@H](c3ccc(Cl)cc3)c3cn(C4CCN(C(C)(C)C)CC4)nn3)cc12)c1ccccc1 [Example 704, 6-(((S)-(1-(1-(tert-butyl)piperidin-4-yl)-1H-1,2,3-triazol-4-yl)(4-chlorophenyl)methyl)amino)-8-chloro-4-(((R)-1-phenylethyl)amino)quinoline-3-carbonitrile] | 3.51 | 0.037
C[C@H](Nc1c(C#N)cnc2c(Cl)cc(N[C@@H](c3ccc(Cl)cc3)c3cn(C4CCN(C(C)(C)C)CC4)nn3)cc12)c1ccccc1 [Example 705, 6-(((S)-(1-(1-(tert-butyl)piperidin-4-yl)-1H-1,2,3-triazol-4-yl)(4-chlorophenyl)methyl)amino)-8-chloro-4-(((S)-1-phenylethyl)amino)quinoline-3-carbonitrile] | 12.2 | 2.83
CC(C)(C)N1CCC(n2cc([C@@H](Nc3cc(Cl)c4ncc(C#N)c(NCc5ccccc5)c4c3)c3ccc(Cl)cc3)nn2)CC1 [Example 706, (S)-4-(benzylamino)-6-(((1-(1-(tert-butyl)piperidin-4-yl)-1H-1,2,3-triazol-4-yl)(4-chlorophenyl)methyl)amino)-8-chloroquinoline-3-carbonitrile] | 12.8 | 0.095
CC1(C)CC(n2cc([C@@H](Nc3cc(F)c4ncc(C#N)c(Nc5ccc(F)c(Cl)c5)c4c3)c3ccc(Cl)cc3)nn2)CC(C)(C)N1 [Example 707, (S)-4-((3-chloro-4-fluorophenyl)amino)-6-(((4-chlorophenyl)(1-(2,2,6,6-tetramethylpiperidin-4-yl)-1H-1,2,3-triazol-4-yl)methyl)amino)-8-fluoroquinoline-3-carbonitrile] | 3.01 | 0.134
N#Cc1cnc2c(F)cc(N[C@@H](c3ccc(Cl)cc3)c3cn(C4CCN(C5COC5)CC4)nn3)cc2c1Nc1ccc(F)c(Cl)c1 [Example 708, (S)-4-((3-chloro-4-fluorophenyl)amino)-6-(((4-chlorophenyl)(1-(1-(oxetan-3-yl)piperidin-4-yl)-1H-1,2,3-triazol-4-yl)methyl)amino)-8-fluoroquinoline-3-carbonitrile] | 0.533 | 0.103
CC(C)(C)N1CCC(n2cc([C@@H](Nc3cc(F)c4ncc(C#N)c(Nc5ccc(F)c(Cl)c5)c4c3)c3ccc(Cl)cc3)nn2)CC1 [Example 709, (S)-6-(((1-(1-(tert-butyl)piperidin-4-yl)-1H-1,2,3-triazol-4-yl)(4-chlorophenyl)methyl)amino)-4-((3-chloro-4-fluorophenyl)amino)-8-fluoroquinoline-3-carbonitrile] | 0.307 | 0.018
CC(C)n1cc([C@@H](Nc2cc(Cl)c3ncc(C#N)c(Nc4ccc(F)c(Cl)c4)c3c2)c2cccc(CN(C)CCN(C)C)c2)nn1 [Example 710, (S)-8-chloro-4-((3-chloro-4-fluorophenyl)amino)-6-(((3-(((2-(dimethylamino)ethyl)(methyl)amino)methyl)phenyl) (1-isopropyl-1H-1,2,3-triazol-4-yl)methyl)amino) quinoline-3-carbonitrile] | 0.352 | 0.02

The next lines start with the values.

EC50 [1] [µM] | IC50 [2] [µM] | SMILES
> 10 | 0.046 | CC(C)n1cc([C@@H](Nc2cc(Cl)c3ncc(C#N)c(Nc4ccc(F)c(Cl)c4)c3c2)c2cccc(CNCCN(C)C)c2)nn1 [Example 711, (S)-8-chloro-4-((3-chloro-4-fluorophenyl)amino)-6-(((3-(((2-(dimethylamino)ethyl)amino)methyl)phenyl)(1-isopropyl-1H-1,2,3-triazol-4-yl)methyl)amino)quinoline-3-carbonitrile]
0.498 | 0.014 | CC(C)n1cc([C@@H](Nc2cc(Cl)c3ncc(C#N)c(Nc4ccc(F)c(Cl)c4)c3c2)c2cccc(CN(C)C)c2)nn1 [Example 712, (S)-8-chloro-4-((3-chloro-4-fluorophenyl)amino)-6-(((3-((dimethylamino)methyl)phenyl)(1-isopropyl-1H-1,2,3-triazol-4-yl)methyl)amino)quinoline-3-carbonitrile]
0.358 | 0.017 | CC(C)n1cc([C@@H](Nc2cc(Cl)c3ncc(C#N)c(Nc4ccc(F)c(Cl)c4)c3c2)c2cccc(CO)c2)nn1 [Example 713, (S)-8-chloro-4-((3-chloro-4-fluorophenyl)amino)-6-(((3-(hydroxymethyl)phenyl)(1-isopropyl-1H-1,2,3-triazol-4-yl)methyl)amino)quinoline-3-carbonitrile]
1.7 | 0.131 | CC(C)(C)N1CCC(n2cc([C@@H](Nc3cc(Cl)c4ncc(C#N)c(NC5CCCC5)c4c3)c3ccc(Cl)cc3)nn2)CC1 [Example 714, (S)-6-(((1-(1-(tert-butyl)piperidin-4-yl)-1H-1,2,3-triazol-4-yl)(4-chlorophenyl)methyl)amino)-8-chloro-4-(cyclopentylamino)quinoline-3-carbonitrile]
2.08 | 0.062 | CC(C)(C)N1CCC(n2cc([C@@H](Nc3cc(Cl)c4ncc(C#N)c(NC5CCCCC5)c4c3)c3ccc(Cl)cc3)nn2)CC1 [Example 715, (S)-6-(((1-(1-(tert-butyl)piperidin-4-yl)-1H-1,2,3-triazol-4-yl)(4-chlorophenyl)methyl)amino)-8-chloro-4-(cyclohexylamino)quinoline-3-carbonitrile]
0.847 | 0.06 | CC(C)(C)N1CCC(n2cc([C@@H](Nc3cc(Cl)c4ncc(C#N)c(NC5CCCCCC5)c4c3)c3ccc(Cl)cc3)nn2)CC1 [Example 716, (S)-6-(((1-(1-(tert-butyl)piperidin-4-yl)-1H-1,2,3-triazol-4-yl)(4-chlorophenyl)methyl)amino)-8-chloro-4-(cycloheptylamino)quinoline-3-carbonitrile]
2.58 | 0.041 | CC(C)(C)N1CCC(n2cc([C@@H](Nc3cc(Cl)c4ncc(C#N)c(Nc5ccc(F)c(Cl)c5)c4c3)c3ccccc3CN3CCOCC3)nn2)CC1 [Example 719, (S)-6-(((1-(1-(tert-butyl)piperidin-4-yl)-1H-1,2,3-triazol-4-yl)(2-(morpholinomethyl)phenyl)methyl)amino)-8-chloro-4-((3-chloro-4-fluorophenyl)amino)quinoline-3-carbonitrile]

Reference: US10316017B2, “COT modulators and methods of use thereof” (Gilead Sciences, Inc., priority 2015, dated 2019)
